Results as given in ChEMBL document CHEMBL5046315, “CRCM5484: A BET-BDII Selective Compound with Differential Anti-leukemic Drug Modulation” (J Med Chem, 2022).
The source made the active and inactive calls. The calls are words filed in the database; no cut-off is given here.

Key:
Homo sapiens [1] = organism: Homo sapiens; assay: Selectivity ratio of IC50 for BRD3-BD1 (unknown origin) to IC50 for BRD3-BD2 (unknown origin)
[2] = molecular target: T1, Bromodomain-containing protein 3 (Homo sapiens, UniProt Q15059); assay: Inhibition of BRD3-BD1 domain (unknown origin) incubated for 6 hrs by HTRF method
T1 sequence (Q15059 whole entry, the tested form may be a part): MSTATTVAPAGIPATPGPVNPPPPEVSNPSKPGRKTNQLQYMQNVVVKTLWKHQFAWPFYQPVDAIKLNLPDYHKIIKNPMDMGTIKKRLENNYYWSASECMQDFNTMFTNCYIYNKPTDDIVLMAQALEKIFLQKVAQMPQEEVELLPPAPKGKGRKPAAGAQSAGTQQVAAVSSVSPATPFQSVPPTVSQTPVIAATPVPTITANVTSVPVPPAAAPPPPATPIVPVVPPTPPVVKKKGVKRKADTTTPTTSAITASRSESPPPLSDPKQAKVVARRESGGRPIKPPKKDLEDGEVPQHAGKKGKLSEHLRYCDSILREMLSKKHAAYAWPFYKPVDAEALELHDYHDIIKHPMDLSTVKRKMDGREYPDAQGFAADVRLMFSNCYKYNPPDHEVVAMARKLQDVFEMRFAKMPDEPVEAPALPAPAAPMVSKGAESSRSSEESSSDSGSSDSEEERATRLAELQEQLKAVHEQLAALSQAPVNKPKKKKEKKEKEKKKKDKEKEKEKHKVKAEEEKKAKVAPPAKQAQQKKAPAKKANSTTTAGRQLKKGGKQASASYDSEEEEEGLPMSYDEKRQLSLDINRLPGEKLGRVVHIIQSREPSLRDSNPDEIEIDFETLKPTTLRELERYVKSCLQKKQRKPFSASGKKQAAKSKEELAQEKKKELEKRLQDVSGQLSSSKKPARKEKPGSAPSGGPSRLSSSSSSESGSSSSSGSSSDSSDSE

[3] = molecular target: T1, Bromodomain-containing protein 3; assay: Inhibition of BRD3-BD2 (unknown origin) incubated for 6 hrs by HTRF method
[4] = molecular target: T2, Bromodomain-containing protein 4 (Homo sapiens, UniProt O60885); assay: Inhibition of BRD4-BD1 (unknown origin) (N44 to E168 residues) expressed in bacterial expression system assessed as dissociation constant by BROMOscan method
[5] = molecular target: T2, Bromodomain-containing protein 4; assay: Inhibition of BRD4-BD2 (unknown origin) (K333 to E460 residues) expressed in bacterial system assessed as dissociation constant by BROMOscan method
Homo sapiens [6] = organism: Homo sapiens; assay: Selectivity ratio of IC50 for BRD4-BD1 (unknown origin) to IC50 for BRD4-BD2 (unknown origin)
[7] = molecular target: T2, Bromodomain-containing protein 4; assay: Inhibition of BRD4-BD2 (unknown origin) incubated for 6 hrs by HTRF method
MOLM-14 [8] = assay: cells; settings: Homo sapiens, MOLM-14, 72 h
Description: Cytotoxicity against human MOLM-14 cells assessed as reduction in cell viability incubated for 72 hrs

K562 [9] = assay: Inhibition of IFNgamma induced MHC-1 expression in human K562 cells treated for 48 hrs by flow cytometric analysis; format: functional, cell-based; settings: dose 0.2-20 µM
MOLM-14 [10] = assay: Downregulation of Myc expression in human MOLM-14 cells incubated for 2 hrs by RT-PCR analysis; format: functional, cell-based; settings: dose 5.0 µM
K562 [11] = assay: Cytotoxicity against human K562 cells assessed as reduction in cell viability incubated for 72 hrs; format: functional, cell-based; settings: K562, 72 h
CCRF-CEM = assay: Cytotoxicity against human CCRF-CEM cells assessed as reduction in cell viability incubated for 72 hrs; format: functional, cell-based
NB-4 = assay: Cytotoxicity against human NB-4 cells assessed as reduction in cell viability incubated for 72 hrs; format: functional, cell-based; settings: NB-4, 72 h
[12] = molecular target: T3, Bromodomain-containing protein 2 (Homo sapiens, UniProt P25440); assay: Inhibition of BRD2-BD2 (unknown origin) incubated for 6 hrs by HTRF method
T3 sequence (P25440 whole entry, the tested form may be a part): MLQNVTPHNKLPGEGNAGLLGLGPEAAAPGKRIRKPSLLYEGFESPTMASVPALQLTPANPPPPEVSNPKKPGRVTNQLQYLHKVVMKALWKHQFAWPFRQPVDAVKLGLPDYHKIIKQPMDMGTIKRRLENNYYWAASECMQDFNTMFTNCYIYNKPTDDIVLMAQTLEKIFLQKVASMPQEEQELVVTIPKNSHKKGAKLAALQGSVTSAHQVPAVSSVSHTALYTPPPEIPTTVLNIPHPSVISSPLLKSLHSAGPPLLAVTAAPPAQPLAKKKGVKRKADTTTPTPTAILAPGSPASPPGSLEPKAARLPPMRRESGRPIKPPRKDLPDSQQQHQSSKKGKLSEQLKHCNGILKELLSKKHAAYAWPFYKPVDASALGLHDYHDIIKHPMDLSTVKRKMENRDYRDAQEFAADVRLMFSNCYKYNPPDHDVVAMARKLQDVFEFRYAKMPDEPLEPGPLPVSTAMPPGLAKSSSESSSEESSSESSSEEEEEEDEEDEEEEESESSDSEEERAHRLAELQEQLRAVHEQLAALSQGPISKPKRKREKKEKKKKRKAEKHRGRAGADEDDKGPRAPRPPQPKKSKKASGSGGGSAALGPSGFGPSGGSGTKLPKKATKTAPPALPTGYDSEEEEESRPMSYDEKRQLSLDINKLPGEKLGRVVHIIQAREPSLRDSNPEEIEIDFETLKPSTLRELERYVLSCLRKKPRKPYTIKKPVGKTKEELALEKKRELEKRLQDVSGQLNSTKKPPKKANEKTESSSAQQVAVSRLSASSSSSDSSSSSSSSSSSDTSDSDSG

[13] = molecular target: T2, Bromodomain-containing protein 4; assay: Binding affinity to human partial length BRD4-BD2 (K333 to E460 residues) expressed in bacterial system assessed as dissociation constant by BROMOscan method
[14] = molecular target: T3, Bromodomain-containing protein 2; assay: Binding affinity to human partial length BRD2-BD2 (E348 to D455) expressed in bacterial system assessed as dissociation constant by BROMOscan method
[15] = molecular target: T1, Bromodomain-containing protein 3; assay: Binding affinity to human partial length BRD3-BD2 (G306 to P416) expressed in bacterial system assessed as dissociation constant by BROMOscan method
[16] = molecular target: T2, Bromodomain-containing protein 4; assay: Inhibition of BRD4-BD1 (unknown origin) incubated for 6 hrs by HTRF method
[17] = molecular target: T1, Bromodomain-containing protein 3; assay: Inhibition of BRD3-BD1 (unknown origin) assessed as dissociation constant by TR-FRET method

SMILES | Ratio IC50 (Homo sapiens [1]) | IC50 [2] [nM] | IC50 [3] [nM] | other results
CCOc1ccccc1NC(=O)CSc1nc2sc3c(c2c(=O)n1Cc1ccco1)CCN(C(C)=O)C3 | 23 | 4400 | 150 | –
CC(=O)N1CCc2c(sc3nc(SCC(=O)Nc4ccc(F)cc4)n(Cc4ccco4)c(=O)c23)C1 | 7 | 3600 | 420 | –
CC(=O)N1CCc2c(sc3nc(SCC(=O)Nc4ccccc4)n(Cc4ccco4)c(=O)c23)C1 | 100 | 14000 | 140 | –
CC(=O)N1c2ccc(C3=CCNCC3)cc2N(Cc2ccccc2CO)C[C@@H]1C1CC1 | – | – | – | Kd [4]: 3000 nM; Kd [5]: 63 nM
Cc1ccc(-c2c(C)noc2C)cc1S(=O)(=O)Nc1cccc(C)c1C | – | – | – | Ratio IC50 (Homo sapiens [6]): 12; IC50 [7]: 900 nM
Cc1sc2c(c1C)C(c1ccc(Cl)cc1)=N[C@@H](CC(=O)Nc1ccc(O)cc1)c1nnc(C)n1-2 [BIRABRESIB] | – | – | – | EC50 (MOLM-14 [8]): 80 nM; Activity (K562 [9]): Active; Activity (MOLM-14 [10]): Dose-Dependent Effect
CC(=O)N1CCc2c(sc3nc(SCC(=O)Nc4cccc(Cl)c4)n(Cc4ccco4)c(=O)c23)C1 | 9 | 3100 | 490 | –
CC(=O)N1CCc2c(sc3nc(SCC(=O)Nc4cc(Cl)ccc4C)n(-c4ccc(C)o4)c(=O)c23)C1 | 19 | 7800 | 410 | –
CC(=O)N1CCc2c(sc3nc(SCC(=O)Nc4cc(Cl)ccc4C)n(-c4ccccc4)c(=O)c23)C1 | > 4 | > 25000 | 6300 | –
O=C1c2ccc(Oc3cccc(Oc4ccc5c(c4)C(=O)N(c4ccc(O)cc4)C5=O)c3)cc2C(=O)N1c1ccc(O)cc1 | – | – | – | Ratio IC50 (Homo sapiens [6]): 0.4; IC50 [7]: 3200 nM
COc1cc(OC)c2c(=O)[nH]c(-c3cc(C)c(OCCO)c(C)c3)nc2c1 [APABETALONE] | – | – | – | EC50 (K562 [11]): > 5000 nM; EC50 (MOLM-14 [8]): 6700 nM; EC50 (CCRF-CEM): > 5000 nM; EC50 (NB-4): > 5000 nM; Activity (MOLM-14 [10]): Dose-Dependent Effect
COc1ccc(NC(=O)CSc2nc3sc4c(c3c(=O)n2Cc2ccco2)CCN(C(C)=O)C4)cc1 | 6 | 2200 | 570 | –
CC(=O)c1ccc(NC(=O)CSc2nc3sc4c(c3c(=O)n2Cc2ccco2)CCN(C(C)=O)C4)cc1 | 4 | 1500 | 320 | –
Cc1cc(F)ccc1NS(=O)(=O)c1cc(-c2c(C)noc2C)ccc1C | – | – | – | Ratio IC50 (Homo sapiens [6]): 4.9; IC50 [7]: 1500 nM
CC(=O)N1CCc2c(sc3nc(SCC(=O)Nc4cc(Cl)ccc4C)n(Cc4ccco4)c(=O)c23)C1 | – | 8500 | 85 | IC50 [12]: 120 nM; Ratio IC50 (Homo sapiens [6]): 4.4; IC50 [13]: 775 nM; IC50 [14]: 2600 nM; IC50 [7]: 900 nM; IC50 [15]: 325 nM
CC(=O)c1cccc(NC(=O)CSc2nc3sc4c(c3c(=O)n2Cc2ccco2)CCN(C(C)=O)C4)c1 | 9 | 4100 | 170 | –
CC(=O)N1CCc2c(sc3nc(SCC(=O)Nc4ccccc4C)n(Cc4ccco4)c(=O)c23)C1 | 15 | 3000 | 220 | –
CC(=O)N1CCc2c(sc3nc(SCC(=O)Nc4ccc(F)cc4F)n(Cc4ccco4)c(=O)c23)C1 | 13 | 3500 | 380 | –
CC(=O)N1CCc2c(sc3nc(SCC(=O)Nc4ccccc4)n(-c4ccccc4)c(=O)c23)C1 | > 5 | > 25000 | 5500 | –

SMILES | Ratio IC50 (Homo sapiens [1]) | IC50 [2] [nM] | IC50 [3] [nM] | other results
CC(=O)N1CCc2c(sc3nc(SCC(=O)Nc4ccc(C)c(F)c4)n(Cc4ccco4)c(=O)c23)C1 | 31 | 4200 | 210 | –
CC(=O)N1CCc2c(sc3nc(SCC(=O)Nc4ccc(Cl)cc4)n(Cc4ccco4)c(=O)c23)C1 | 8 | 4500 | 530 | –
COc1ccccc1NC(=O)CSc1nc2sc3c(c2c(=O)n1Cc1ccco1)CCN(C(C)=O)C3 | 31 | – | 72 | –
Cc1nn(CCO)c(C)c1-c1c(C)c(-c2ccc(O)cc2)nc(N)c1C#N | – | – | – | Ratio IC50 (Homo sapiens [6]): 9; IC50 [7]: 900 nM; IC50 [16]: 8200 nM
COc1cccc(NC(=O)CSc2nc3sc4c(c3c(=O)n2Cc2ccco2)CCN(C(C)=O)C4)c1 | 9 | 14000 | 300 | –
CC(=O)N1CCc2c(sc3nc(SCC(=O)Nc4ccc(F)c(Cl)c4)n(Cc4ccco4)c(=O)c23)C1 | 7 | 3800 | 740 | –
CSc1cccc(NC(=O)CSc2nc3sc4c(c3c(=O)n2Cc2ccco2)CCN(C(C)=O)C4)c1 | 11 | 6500 | 410 | –
CC(=O)N1CCc2c(sc3nc(SCC(=O)Nc4ccccc4F)n(Cc4ccco4)c(=O)c23)C1 | 20 | 7500 | 210 | –
CC(=O)N1CCc2c(sc3nc(SCC(=O)Nc4cccc(C)c4)n(Cc4ccco4)c(=O)c23)C1 | 12 | – | 440 | –
CCC(=O)N1CCc2c(sc3[nH]c(=O)n(C4CCCCC4)c(=O)c23)C1 | – | > 25000 | – | –
CC(=O)N1CCc2c(sc3nc(SCC(=O)Nc4cc(F)ccc4F)n(Cc4ccco4)c(=O)c23)C1 | 24 | 4500 | 170 | –
CCc1cccc(C)c1NS(=O)(=O)c1cc(-c2c(C)noc2C)ccc1C | – | – | – | Ratio IC50 (Homo sapiens [6]): 7.8; IC50 [7]: 1100 nM
CC(=O)N1CCc2c(sc3nc(SCC(=O)Nc4ccccc4Cl)n(Cc4ccco4)c(=O)c23)C1 | 23 | 2800 | 100 | –
COc1cc(C(=O)C(=Cc2ccncc2)c2nc3ccccc3o2)cc(OC)c1OC | – | – | – | Ratio IC50 (Homo sapiens [6]): 5.4; IC50 [7]: 800 nM
CCOc1ccc(NC(=O)CSc2nc3sc4c(c3c(=O)n2Cc2ccco2)CCN(C(C)=O)C4)cc1 | 4 | 1300 | 880 | –
CC(=O)Nc1c(F)cc(C(=O)N[C@H]2CC[C@H](O)CC2)cc1O[C@@H](C)c1ccccc1 [GSK046] | – | – | – | EC50 (K562 [11]): > 5000 nM; EC50 (MOLM-14 [8]): 14000 nM; EC50 (CCRF-CEM): > 5000 nM; EC50 (NB-4): > 5000 nM; IC50 [17]: 3600 nM; Activity (MOLM-14 [10]): Dose-Dependent Effect
CC(=O)N1CCc2c(sc3nc(SCC(=O)Nc4ccc(C)cc4)n(Cc4ccco4)c(=O)c23)C1 | 5 | 3200 | 630 | –
CC(=O)N1CCc2c(sc3nc(SCC(=O)Nc4ccc(F)c(F)c4)n(Cc4ccco4)c(=O)c23)C1 | 8 | 4900 | 470 | –
